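Cells were grown in 96-well plates and exposed to each compound for 48 hours at five concentrations; endpoints were interpolated linearly between bracketing concentrations, or set to the highest concentration if not reached. GI50 = concentration required for 50% inhibition of growth.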 Activity calls are given as the source filed them. Cut-off read from the data, not from the text of the source: active = GI50 up to about 1.1 µM and inactive = higher.
Experiments:
Assay in all cases: inhibition of tumour cell growth, NCI panel, 48 h
SK-OV-3 = tested on: SK-OV-3
DLD-1 = tested on: DLD-1
SK-MEL-2 = tested on: SK-MEL-2
NCI-H226 = tested on: NCI-H226
HT-29 = tested on: HT-29
OVCAR-5 = tested on: OVCAR-5
EKVX = tested on: EKVX
HL-60 = tested on: HL-60
SF-295 = tested on: SF-295
UACC-257 = tested on: UACC-257
SF-539 = tested on: SF-539
SF-268 = tested on: SF-268
M14 = tested on: M14
SNB-75 = tested on: SNB-75
A498 = tested on: A498
SNB-19 = tested on: SNB-19
CCRF-CEM = tested on: CCRF-CEM
IGROV-1 = tested on: IGROV-1
HOP-92 = tested on: HOP-92
PC-3 = tested on: PC-3

| Compound | GI50 (SK-OV-3) | GI50 (DLD-1) | GI50 (SK-MEL-2) | GI50 (NCI-H226) | GI50 (HT-29) | GI50 (OVCAR-5) | GI50 (EKVX) | GI50 (HL-60) | GI50 (SF-295) | GI50 (UACC-257) | GI50 (SF-539) | GI50 (SF-268) | GI50 (M14) | GI50 (SNB-75) | GI50 (A498) | GI50 (SNB-19) | GI50 (CCRF-CEM) | GI50 (IGROV-1) | GI50 (HOP-92) | GI50 (PC-3) |
| --- | --- | --- | --- | --- | --- | --- | --- | --- | --- | --- | --- | --- | --- | --- | --- | --- | --- | --- | --- | --- |
| CCCCCCCCCCCc1c(O)c(=O)c2c(oc3c(=O)c(CCCCCCCCCCC)c(O)c(=O)c3n2-c2ccc(N(C)C)cc2)c1=O | 19.7 µM (inactive) | 18.8 µM (inactive) | 21.7 µM (inactive) | 19.3 µM (inactive) | 23.1 µM (inactive) | 23.8 µM (inactive) | 24 µM (inactive) | 27.1 µM (inactive) | 21.8 µM (inactive) | 20 µM (inactive) | 20.3 µM (inactive) | 22.2 µM (inactive) | 16.3 µM (inactive) | 23.7 µM (inactive) | 20.7 µM (inactive) | 20.8 µM (inactive) | 26 µM (inactive) | 24.3 µM (inactive) |  |  |
| CCCCCC#COC1CC(C)CC[C@@H]1C(C)C (some centres undefined) | > 100 µM (inactive) | 41.3 µM (inactive) | > 100 µM (inactive) | > 100 µM (inactive) | 59.4 µM (inactive) | 71.4 µM (inactive) | 42.7 µM (inactive) | 23 µM (inactive) | 39.2 µM (inactive) | 46.2 µM (inactive) | > 100 µM (inactive) | > 100 µM (inactive) | > 100 µM (inactive) | 75.9 µM (inactive) |  | 58.1 µM (inactive) | 15.4 µM (inactive) | 27.7 µM (inactive) | > 100 µM (inactive) |  |
| COc1ccc(C2=NN(C(C)=O)c3nc4ccccc4nc3O2)cc1 |  | 25.4 µM (inactive) | 8.02 µM (inactive) |  | > 100 µM (inactive) |  | 45.6 µM (inactive) | > 100 µM (inactive) | 26.1 µM (inactive) | 50.8 µM (inactive) | 17.8 µM (inactive) | 31.3 µM (inactive) |  | 6.28 µM (inactive) |  | 27 µM (inactive) | > 100 µM (inactive) | 3.33 µM (inactive) | 16.4 µM (inactive) |  |
| Cc1ccc(S(=O)(=O)N[C@@H](Cc2ccccc2)C(=O)CCl)cc1 [TPCK] | 24.2 µM (inactive) |  | 12.9 µM (inactive) | 15.2 µM (inactive) | 14.9 µM (inactive) | 16.6 µM (inactive) | 17.2 µM (inactive) | 4.66 µM (inactive) | 18.9 µM (inactive) | 12.3 µM (inactive) | 16.5 µM (inactive) | 15.7 µM (inactive) | 13.4 µM (inactive) | 14.3 µM (inactive) | 17.8 µM (inactive) | 16.9 µM (inactive) | 3.7 µM (inactive) | 14.9 µM (inactive) | 13.6 µM (inactive) | 15.4 µM (inactive) |
| O=C(Cn1nc(Br)c(Br)c1Br)c1ccccc1 | 32.5 µM (inactive) |  | 20.7 µM (inactive) | 11.8 µM (inactive) | 22.2 µM (inactive) | 40.7 µM (inactive) | 22.5 µM (inactive) | 10.9 µM (inactive) | 29.1 µM (inactive) | 20 µM (inactive) | 18.2 µM (inactive) | 51.3 µM (inactive) | 26.7 µM (inactive) | 23.2 µM (inactive) | 35 µM (inactive) | 39.3 µM (inactive) | 5.97 µM (inactive) | 27.7 µM (inactive) | 20 µM (inactive) | 32.7 µM (inactive) |
| NC1=Nc2ncccc2C(=O)NN1 | > 10 µM (inactive) |  | > 10 µM (inactive) | > 10 µM (inactive) | > 10 µM (inactive) | > 10 µM (inactive) | > 10 µM (inactive) | > 10 µM (inactive) | > 10 µM (inactive) | > 10 µM (inactive) | > 10 µM (inactive) | > 10 µM (inactive) | > 10 µM (inactive) | > 10 µM (inactive) | > 10 µM (inactive) | > 10 µM (inactive) | > 10 µM (inactive) | > 10 µM (inactive) | > 10 µM (inactive) | > 10 µM (inactive) |
| COc1cc(/C=C2\C[C@H]3[C@@H]4CCC5=CC(=O)CC[C@]5(C)[C@H]4CC[C@]3(C)C2=O)cc(OC)c1OC | 29.4 µM (inactive) |  | 7.19 µM (inactive) | > 28.5 µM (inactive) | 5.82 µM (inactive) | 33.1 µM (inactive) | 15.6 µM (inactive) | 3.39 µM (inactive) | 5.93 µM (inactive) | 6.07 µM (inactive) | 46.7 µM (inactive) | 57.3 µM (inactive) | 3.74 µM (inactive) | 9.08 µM (inactive) | 17.7 µM (inactive) | 30.3 µM (inactive) | 4.76 µM (inactive) | 8.99 µM (inactive) | 13.1 µM (inactive) | 3.23 µM (inactive) |
| O=C1c2c(Br)sc(Br)c2[C@@H](Cl)[C@H]1Cl | 19.4 µM (inactive) |  | 18.9 µM (inactive) | 16.4 µM (inactive) | 28.4 µM (inactive) | 20.8 µM (inactive) | 21.7 µM (inactive) | 3.27 µM (inactive) | 20.5 µM (inactive) | 15.9 µM (inactive) | 12.5 µM (inactive) | 19.1 µM (inactive) | 19.7 µM (inactive) | 17.6 µM (inactive) | > 100 µM (inactive) | 18.9 µM (inactive) | 3.18 µM (inactive) | 17.7 µM (inactive) | 21 µM (inactive) | 18.7 µM (inactive) |
| CCCN(CCC)c1c([N+](=O)[O-])cc(C(=O)N(CC)CC)cc1[N+](=O)[O-] | 25.5 µM (inactive) | 17.6 µM (inactive) | 16.7 µM (inactive) | 23 µM (inactive) | 22.6 µM (inactive) | 30.9 µM (inactive) | 18.6 µM (inactive) | 14 µM (inactive) | 23 µM (inactive) | 16.3 µM (inactive) | 24.7 µM (inactive) | 17.6 µM (inactive) | 23.2 µM (inactive) | 21.3 µM (inactive) |  | 20 µM (inactive) | 20.8 µM (inactive) | 32.3 µM (inactive) |  |  |
| COc1ccc(/C=C/c2sc3ccccc3[n+]2CCCCI)cc1OC | > 10 µM (inactive) |  | 3.61 µM (inactive) | > 10 µM (inactive) | > 10 µM (inactive) | > 10 µM (inactive) | > 10 µM (inactive) | 4.46 µM (inactive) | > 10 µM (inactive) | 5.33 µM (inactive) | > 10 µM (inactive) | > 10 µM (inactive) | > 10 µM (inactive) | 5.64 µM (inactive) | > 10 µM (inactive) | > 10 µM (inactive) | 3.49 µM (inactive) | > 10 µM (inactive) | 9.53 µM (inactive) | 3.33 µM (inactive) |
| CCOC(=O)/C=C(\C(=O)OCC)n1cnc2c(N)ncnc21 | 17.7 µM (inactive) |  | 16.8 µM (inactive) | 5.97 µM (inactive) | 6.68 µM (inactive) | 5.83 µM (inactive) | 8.2 µM (inactive) | 0.931 µM (active) | 16.8 µM (inactive) | 14.5 µM (inactive) | 14.1 µM (inactive) | 15.3 µM (inactive) | 10.4 µM (inactive) | 12.4 µM (inactive) | 13.2 µM (inactive) | 16.1 µM (inactive) | 1.63 µM (inactive) | 10.8 µM (inactive) | 2.28 µM (inactive) | 13.3 µM (inactive) |
| Cc1sc(/N=C/c2c[nH]c3ccccc23)c(C#N)c1C | 88.7 µM (inactive) |  | 30.5 µM (inactive) | 30.5 µM (inactive) | 6.89 µM (inactive) | > 100 µM (inactive) | 67.9 µM (inactive) | 21.2 µM (inactive) | 28.3 µM (inactive) | 44.6 µM (inactive) | 40.4 µM (inactive) | 85.3 µM (inactive) | 22 µM (inactive) | 37.1 µM (inactive) | 28.7 µM (inactive) | 61.2 µM (inactive) | 15.3 µM (inactive) | 21.7 µM (inactive) | 45.7 µM (inactive) | 45.7 µM (inactive) |
| Oc1ccccc1CNCc1ccccc1O | > 100 µM (inactive) |  | > 100 µM (inactive) | > 100 µM (inactive) | > 100 µM (inactive) | > 100 µM (inactive) | > 100 µM (inactive) | > 100 µM (inactive) | > 100 µM (inactive) | > 100 µM (inactive) | 56.1 µM (inactive) | > 100 µM (inactive) | > 100 µM (inactive) | > 100 µM (inactive) | > 100 µM (inactive) | > 100 µM (inactive) | 59.2 µM (inactive) | > 100 µM (inactive) | 99.5 µM (inactive) | > 100 µM (inactive) |
| O=c1c(Sc2c(O)c3ccccc3c3ccccc3c2=O)c(O)c2ccccc2c2ccccc12 | > 100 µM (inactive) | 51.3 µM (inactive) | 18.9 µM (inactive) |  | 66.2 µM (inactive) | 53.2 µM (inactive) | 89.3 µM (inactive) | 15.6 µM (inactive) | 55.7 µM (inactive) | 41.9 µM (inactive) | 42.3 µM (inactive) | 20 µM (inactive) | 46.6 µM (inactive) | > 100 µM (inactive) |  | 19.3 µM (inactive) | 14 µM (inactive) | 47.2 µM (inactive) | 29.3 µM (inactive) |  |
| Cc1[nH]c2ncn(/N=C/c3ccccc3)c(=N)c2c1Cc1ccccc1 | > 100 µM (inactive) |  | 87.1 µM (inactive) | 95.5 µM (inactive) | > 100 µM (inactive) | > 100 µM (inactive) | 69.8 µM (inactive) | > 100 µM (inactive) | > 100 µM (inactive) | 75.3 µM (inactive) | 38.5 µM (inactive) | > 100 µM (inactive) | > 100 µM (inactive) | > 100 µM (inactive) | 60.8 µM (inactive) | > 100 µM (inactive) | > 100 µM (inactive) | > 100 µM (inactive) | 42.4 µM (inactive) | 45.7 µM (inactive) |

Source: ChEMBL document CHEMBL1201862, “PubChem BioAssay data set” (2004)
